Measured values reported in patent US6673791B2, “Non-nucleoside reverse transcriptase inhibitors” (Boehringer Ingelheim (Canada) Ltd., priority 2001, dated 2004).

target: T1, K103N/Y181C double mutant RT (HIV-1 RT) (Human immunodeficiency virus type 1 group M subtype B, UniProt P03366, K702N/Y780C); assay: biochemical; details: not given
T1 construct: mutations that occur in the reverse transcriptase segment of the pol gene
Description: (§1) Based upon testing of these compounds, as described below, it is known that they inhibit the RNA-dependent DNA polymerase activity of HIV-1 RT. […] Utilising the Reverse Transcriptase (RT) Assay described below, compounds can be tested for their ability to inhibit the RNA-dependent DNA polymerase activity of HIV-1 RT. Certain specific compounds described in the Examples which appear below, were so tested. The results of this testing appear in Table 4 as IC50 (nM) and Table 5 as EC50 (nM).
(§2) Reverse TranscriptASE (RT) Assays
(§3) The assays are as described in WO 01/96338A1, the contents of which are hereby incorporated herein. The results are listed in Tables 8 as IC50(nM) and EC50(nM).

Row | SMILES | IC50
1 | CCN1c2ncc(CCOc3ccc(CC(C)C(=O)O)c4ccccc34)cc2C(=O)Nc2c(C)cc(Cl)nc21 (stereo not drawn) [Entry 1047] | 100 to 1000 nM
2 | CCN1c2ncc(CCOc3cccc4c3CCCN4CC(=O)O)cc2C(=O)N(C)c2cccnc21 [Entry 6001] | > 1000 nM
3 | CCN1c2ncc(CCOc3ccc(C(=O)O)c4ccccc34)cc2C(=O)Nc2c(C)ccnc21 [Entry 1005] | 100 to 1000 nM
4 | CCN1c2ncc(CCOc3ccc(C(=O)O)c4ccccc34)cc2C(=O)N(C)c2cccnc21 [Entry 2010] | 100 to 1000 nM
5 | CCN1c2ncc(CCOc3ccc4cc(C(=O)O)ccc4c3)cc2C(=O)N(C)c2cccnc21 [Entry 3001] | 100 to 1000 nM
6 | CCN1c2ncc(CCOc3ccc(CCC(=O)O)c4ccccc34)cc2C(=O)Nc2c(C)cc(F)nc21 [Entry 1027] | 100 to 1000 nM
7 | CCN1c2ncc(CCOc3ccc(NS(C)(=O)=O)c4ccccc34)cc2C(=O)N(C)c2cccnc21 [Entry 2003] | 100 to 1000 nM
8 | CCN1c2ncc(CCOc3ccc(CC(=O)O)c4c3CCCC4)cc2C(=O)N(C)c2cccnc21 [Entry 5006] | 100 to 1000 nM
9 | CCN1c2ncc(CCOc3ccc(C(=O)O)c4c3CCN(S(C)(=O)=O)C4)cc2C(=O)N(C)c2cccnc21 [Entry 7005] | < 100 nM
10 | CCN1c2ncc(CCOc3ccc(C(=O)O)c4c3CCN(C(C)=O)C4)cc2C(=O)N(C)c2cccnc21 [Entry 7004] | 100 to 1000 nM
11 | CCN1c2ncc(CCOc3ccc(CC(=O)O)c4ccccc34)cc2C(=O)N(C)c2ccc(C)nc21 [Entry 1011] | 100 to 1000 nM
12 | CCN1c2ncc(CCOc3ccc(C(=O)O)c4ccccc34)cc2C(=O)N(C)c2ccc(C)nc21 [Entry 1003] | 100 to 1000 nM
13 | CCN1c2ncc(CCOc3ccc(C(=O)O)c4ccccc34)cc2C(=O)Nc2c(C)cc(F)nc21 [Entry 1004] | 100 to 1000 nM
14 | CCN1c2ncc(CCOc3ccc(/C=C(\C)C(=O)O)c4ccccc34)cc2C(=O)Nc2c(C)cc(F)nc21 [Entry 1041] | 100 to 1000 nM
15 | CCN1c2ncc(CCOc3ccc(CC(=O)O)c4ccccc34)cc2C(=O)Nc2c(C)ccnc21 [Entry 1013] | > 1000 nM
16 | CCN1c2ncc(CCOc3ccc(CC(C)C(=O)O)c4ccccc34)cc2C(=O)N(C)c2ccc(C)nc21 (stereo not drawn) [Entry 1045] | 100 to 1000 nM
17 | CCN1c2ncc(CCOc3ccc(CCC(=O)O)c4ccccc34)cc2C(=O)Nc2c(C)ccnc21 [Entry 1024] | > 1000 nM

target: T2, V106A mutant RT (HIV-1 RT) (Human immunodeficiency virus type 1 group M subtype B, UniProt P03366, V705A); assay: biochemical; details: IC50 V106A (nM)
T2 construct: mutations that occur in the reverse transcriptase segment of the pol gene
Description: as §1, §2, §3

Row | SMILES | IC50
18 | CCN1c2ncc(CCOc3ccc(CC(C)C(=O)O)c4ccccc34)cc2C(=O)Nc2c(C)cc(Cl)nc21 (stereo not drawn) [Entry 1047] | 100 to 1000 nM
19 | CCN1c2ncc(CCOc3cccc4c3CCCN4CC(=O)O)cc2C(=O)N(C)c2cccnc21 [Entry 6001] | > 1000 nM
20 | CCN1c2ncc(CCOc3ccc(C(=O)O)c4ccccc34)cc2C(=O)Nc2c(C)ccnc21 [Entry 1005] | 100 to 1000 nM
21 | CCN1c2ncc(CCOc3ccc(C(=O)O)c4ccccc34)cc2C(=O)N(C)c2cccnc21 [Entry 2010] | > 1000 nM
22 | CCN1c2ncc(CCOc3ccc4cc(C(=O)O)ccc4c3)cc2C(=O)N(C)c2cccnc21 [Entry 3001] | 100 to 1000 nM
23 | CCN1c2ncc(CCOc3ccc(CCC(=O)O)c4ccccc34)cc2C(=O)Nc2c(C)cc(F)nc21 [Entry 1027] | 100 to 1000 nM
24 | CCN1c2ncc(CCOc3ccc(NS(C)(=O)=O)c4ccccc34)cc2C(=O)N(C)c2cccnc21 [Entry 2003] | > 1000 nM
25 | CCN1c2ncc(CCOc3ccc(CC(=O)O)c4c3CCCC4)cc2C(=O)N(C)c2cccnc21 [Entry 5006] | > 1000 nM
26 | CCN1c2ncc(CCOc3ccc(C(=O)O)c4c3CCN(S(C)(=O)=O)C4)cc2C(=O)N(C)c2cccnc21 [Entry 7005] | > 1000 nM
27 | CCN1c2ncc(CCOc3ccc(C(=O)O)c4c3CCN(C(C)=O)C4)cc2C(=O)N(C)c2cccnc21 [Entry 7004] | > 1000 nM
28 | CCN1c2ncc(CCOc3ccc(CC(=O)O)c4ccccc34)cc2C(=O)N(C)c2ccc(C)nc21 [Entry 1011] | > 1000 nM
29 | CCN1c2ncc(CCOc3ccc(C(=O)O)c4ccccc34)cc2C(=O)N(C)c2ccc(C)nc21 [Entry 1003] | > 1000 nM
30 | CCN1c2ncc(CCOc3ccc(C(=O)O)c4ccccc34)cc2C(=O)Nc2c(C)cc(F)nc21 [Entry 1004] | 100 to 1000 nM
31 | CCN1c2ncc(CCOc3ccc(/C=C(\C)C(=O)O)c4ccccc34)cc2C(=O)Nc2c(C)cc(F)nc21 [Entry 1041] | 100 to 1000 nM
32 | CCN1c2ncc(CCOc3ccc(CC(=O)O)c4ccccc34)cc2C(=O)Nc2c(C)ccnc21 [Entry 1013] | > 1000 nM
33 | CCN1c2ncc(CCOc3ccc(CC(C)C(=O)O)c4ccccc34)cc2C(=O)N(C)c2ccc(C)nc21 (stereo not drawn) [Entry 1045] | > 1000 nM
34 | CCN1c2ncc(CCOc3ccc(CCC(=O)O)c4ccccc34)cc2C(=O)Nc2c(C)ccnc21 [Entry 1024] | 100 to 1000 nM

target: T3, WT RT (HIV-1 RT) (Human immunodeficiency virus type 1 group M subtype B, UniProt P03366); assay: biochemical; details: not given
T3 construct: mutations that occur in the reverse transcriptase segment of the pol gene
Description: as §1, §2, §3

Row | SMILES | IC50
35 | CCN1c2ncc(CCOc3ccc(CC(C)C(=O)O)c4ccccc34)cc2C(=O)Nc2c(C)cc(Cl)nc21 (stereo not drawn) [Entry 1047] | < 100 nM
36 | CCN1c2ncc(CCOc3cccc4c3CCCN4CC(=O)O)cc2C(=O)N(C)c2cccnc21 [Entry 6001] | < 100 nM
37 | CCN1c2ncc(CCOc3ccc(C(=O)O)c4ccccc34)cc2C(=O)Nc2c(C)ccnc21 [Entry 1005] | < 100 nM
38 | CCN1c2ncc(CCOc3ccc(C(=O)O)c4ccccc34)cc2C(=O)N(C)c2cccnc21 [Entry 2010] | < 100 nM
39 | CCN1c2ncc(CCOc3ccc4cc(C(=O)O)ccc4c3)cc2C(=O)N(C)c2cccnc21 [Entry 3001] | < 100 nM
40 | CCN1c2ncc(CCOc3ccc(CCC(=O)O)c4ccccc34)cc2C(=O)Nc2c(C)cc(F)nc21 [Entry 1027] | < 100 nM
41 | CCN1c2ncc(CCOc3ccc(NS(C)(=O)=O)c4ccccc34)cc2C(=O)N(C)c2cccnc21 [Entry 2003] | < 100 nM
42 | CCN1c2ncc(CCOc3ccc(CC(=O)O)c4c3CCCC4)cc2C(=O)N(C)c2cccnc21 [Entry 5006] | < 100 nM
43 | CCN1c2ncc(CCOc3ccc(C(=O)O)c4c3CCN(S(C)(=O)=O)C4)cc2C(=O)N(C)c2cccnc21 [Entry 7005] | < 100 nM
44 | CCN1c2ncc(CCOc3ccc(C(=O)O)c4c3CCN(C(C)=O)C4)cc2C(=O)N(C)c2cccnc21 [Entry 7004] | < 100 nM
45 | CCN1c2ncc(CCOc3ccc(CC(=O)O)c4ccccc34)cc2C(=O)N(C)c2ccc(C)nc21 [Entry 1011] | < 100 nM
46 | CCN1c2ncc(CCOc3ccc(C(=O)O)c4ccccc34)cc2C(=O)N(C)c2ccc(C)nc21 [Entry 1003] | < 100 nM
47 | CCN1c2ncc(CCOc3ccc(C(=O)O)c4ccccc34)cc2C(=O)Nc2c(C)cc(F)nc21 [Entry 1004] | < 100 nM
48 | CCN1c2ncc(CCOc3ccc(/C=C(\C)C(=O)O)c4ccccc34)cc2C(=O)Nc2c(C)cc(F)nc21 [Entry 1041] | < 100 nM
49 | CCN1c2ncc(CCOc3ccc(CC(=O)O)c4ccccc34)cc2C(=O)Nc2c(C)ccnc21 [Entry 1013] | < 100 nM
50 | CCN1c2ncc(CCOc3ccc(CC(C)C(=O)O)c4ccccc34)cc2C(=O)N(C)c2ccc(C)nc21 (stereo not drawn) [Entry 1045] | < 100 nM
51 | CCN1c2ncc(CCOc3ccc(CCC(=O)O)c4ccccc34)cc2C(=O)Nc2c(C)ccnc21 [Entry 1024] | < 100 nM

target: T4, Y188L mutant RT (HIV-1 RT) (Human immunodeficiency virus type 1 group M subtype B, UniProt P03366, Y787L); assay: biochemical; details: IC50 Y188L (nM)
T4 construct: mutations that occur in the reverse transcriptase segment of the pol gene
Description: as §1, §2, §3

Row | SMILES | IC50
52 | CCN1c2ncc(CCOc3ccc(CC(C)C(=O)O)c4ccccc34)cc2C(=O)Nc2c(C)cc(Cl)nc21 (stereo not drawn) [Entry 1047] | > 1000 nM
53 | CCN1c2ncc(CCOc3cccc4c3CCCN4CC(=O)O)cc2C(=O)N(C)c2cccnc21 [Entry 6001] | > 1000 nM
54 | CCN1c2ncc(CCOc3ccc(C(=O)O)c4ccccc34)cc2C(=O)Nc2c(C)ccnc21 [Entry 1005] | > 1000 nM
55 | CCN1c2ncc(CCOc3ccc(C(=O)O)c4ccccc34)cc2C(=O)N(C)c2cccnc21 [Entry 2010] | > 1000 nM
56 | CCN1c2ncc(CCOc3ccc4cc(C(=O)O)ccc4c3)cc2C(=O)N(C)c2cccnc21 [Entry 3001] | > 1000 nM
57 | CCN1c2ncc(CCOc3ccc(CCC(=O)O)c4ccccc34)cc2C(=O)Nc2c(C)cc(F)nc21 [Entry 1027] | > 1000 nM
58 | CCN1c2ncc(CCOc3ccc(NS(C)(=O)=O)c4ccccc34)cc2C(=O)N(C)c2cccnc21 [Entry 2003] | > 1000 nM
59 | CCN1c2ncc(CCOc3ccc(CC(=O)O)c4c3CCCC4)cc2C(=O)N(C)c2cccnc21 [Entry 5006] | > 1000 nM
60 | CCN1c2ncc(CCOc3ccc(C(=O)O)c4c3CCN(S(C)(=O)=O)C4)cc2C(=O)N(C)c2cccnc21 [Entry 7005] | 100 to 1000 nM
61 | CCN1c2ncc(CCOc3ccc(C(=O)O)c4c3CCN(C(C)=O)C4)cc2C(=O)N(C)c2cccnc21 [Entry 7004] | > 1000 nM
62 | CCN1c2ncc(CCOc3ccc(CC(=O)O)c4ccccc34)cc2C(=O)N(C)c2ccc(C)nc21 [Entry 1011] | > 1000 nM
63 | CCN1c2ncc(CCOc3ccc(C(=O)O)c4ccccc34)cc2C(=O)N(C)c2ccc(C)nc21 [Entry 1003] | > 1000 nM
64 | CCN1c2ncc(CCOc3ccc(C(=O)O)c4ccccc34)cc2C(=O)Nc2c(C)cc(F)nc21 [Entry 1004] | > 1000 nM
65 | CCN1c2ncc(CCOc3ccc(/C=C(\C)C(=O)O)c4ccccc34)cc2C(=O)Nc2c(C)cc(F)nc21 [Entry 1041] | > 1000 nM
66 | CCN1c2ncc(CCOc3ccc(CC(=O)O)c4ccccc34)cc2C(=O)Nc2c(C)ccnc21 [Entry 1013] | > 1000 nM
67 | CCN1c2ncc(CCOc3ccc(CC(C)C(=O)O)c4ccccc34)cc2C(=O)N(C)c2ccc(C)nc21 (stereo not drawn) [Entry 1045] | > 1000 nM
68 | CCN1c2ncc(CCOc3ccc(CCC(=O)O)c4ccccc34)cc2C(=O)Nc2c(C)ccnc21 [Entry 1024] | > 1000 nM

tested on: WT RT (HIV-1 wild type strain); assay: EC50 assay, WT RT strain; assay type: cell-based; details: Human immunodeficiency virus 1, read-out: EC50 WT RT (nM)
Description: as §2, §3

Row | SMILES | EC50
69 | CCN1c2ncc(CCOc3cccc4c3CCCN4CC(=O)O)cc2C(=O)N(C)c2cccnc21 [Entry 6001] | 100 to 1000 nM
70 | CCN1c2ncc(CCOc3ccc(C(=O)O)c4c3CCN(S(C)(=O)=O)C4)cc2C(=O)N(C)c2cccnc21 [Entry 7005] | < 100 nM
71 | CCN1c2ncc(CCOc3ccc(C(=O)O)c4c3CCN(C(C)=O)C4)cc2C(=O)N(C)c2cccnc21 [Entry 7004] | 100 to 1000 nM

tested on: K103N/Y181C (HIV-1 double mutant strain); assay: EC50 assay, K103N/Y181C strain; assay type: cell-based; details: Human immunodeficiency virus 1, read-out: EC50 K103N/Y181C (nM), K103N/Y181C double mutant
Description: as §2, §3

Row | SMILES | EC50
72 | CCN1c2ncc(CCOc3ccc(NS(C)(=O)=O)c4ccccc34)cc2C(=O)N(C)c2cccnc21 [Entry 2003] | < 100 nM
